In brackets after ≈: the same amount, converted by molar mass.
Tests used:
Shigella flexneri [1] = experiment: Antimicrobial activity against Shigella flexneri MTCC 1457 at 50 ug/ml after 24 hrs by agar disc diffusion method; type: functional; details: MTCC 1457, 24 h, read-out: DIZ
[2] = tested on: Radical scavenging activity; experiment: Antioxidant activity assessed as DPPH free radical scavenging activity at 10 ug/ml after 20 mins; type: functional
Shigella flexneri [3] = experiment: Antimicrobial activity against Shigella flexneri MTCC 1457; type: functional
[4] = Antiinflammatory activity against heat-induced albumin denaturation at […] preincubated for 15 mins before heat induction by UV-vis spectrophotometer analysis; type: functional
[5] = Antioxidant activity assessed as reducing power of ferric ion at 100 ug/ml after 20 mins; type: functional; set-up: scale not given: the % may be the effect or the level left
Aspergillus flavus [6] = experiment: Antimicrobial activity against Aspergillus flavus MTCC 873; type: functional
Klebsiella pneumoniae [7] = experiment: Antimicrobial activity against Klebsiella pneumoniae MTCC 3384 at 50 ug/ml after 24 hrs by agar disc diffusion method; type: functional; details: MTCC 3384, 24 h, read-out: DIZ
Aspergillus niger [8] = experiment: Antimicrobial activity against Aspergillus niger MTCC 281; type: functional
[9] = tested on: Radical scavenging activity; experiment: Antioxidant activity assessed as DPPH free radical scavenging activity at 50 ug/ml after 20 mins; type: functional
[10] = Antioxidant activity against ferric chloride-induced lipid peroxidation using egg lecithin at 10 ug/ml after 1 hr; type: functional
Escherichia coli [11] = experiment: Antimicrobial activity against Escherichia coli MTCC 724 at 100 ug/ml after 24 hrs by agar disc diffusion method; type: functional; details: MTCC 724, 24 h, read-out: DIZ
Aspergillus flavus [12] = experiment: Antimicrobial activity against Aspergillus flavus MTCC 873 at 50 ug/ml after 24 hrs by agar disc diffusion method; type: functional; details: MTCC 873, 24 h, read-out: DIZ
[13] = tested on: Radical scavenging activity; experiment: Antioxidant activity assessed as DPPH free radical scavenging activity at 100 ug/ml after 20 mins; type: functional
Escherichia coli [14] = experiment: Antimicrobial activity against Escherichia coli MTCC 724; type: functional
[15] = Antioxidant activity assessed as reducing power of ferric ion at 10 ug/ml after 20 mins; type: functional; set-up: scale not given: the % may be the effect or the level left
Staphylococcus aureus [16] = experiment: Antimicrobial activity against Staphylococcus aureus MTCC 96 at 50 ug/ml after 24 hrs by agar disc diffusion method; type: functional; details: MTCC 96, 24 h, read-out: DIZ
[17] = Antioxidant activity against ferric chloride-induced lipid peroxidation using egg lecithin at 100 ug/ml after 1 hr; type: functional
Klebsiella pneumoniae [18] = experiment: Antimicrobial activity against Klebsiella pneumoniae MTCC 3384 at 100 ug/ml after 24 hrs by agar disc diffusion method; type: functional; details: MTCC 3384, 24 h, read-out: DIZ
Aspergillus flavus [19] = experiment: Antimicrobial activity against Aspergillus flavus MTCC 873 at 100 ug/ml after 24 hrs by agar disc diffusion method; type: functional; details: MTCC 873, 24 h, read-out: DIZ
Shigella flexneri [20] = experiment: Antimicrobial activity against Shigella flexneri MTCC 1457 at 100 ug/ml after 24 hrs by agar disc diffusion method; type: functional; details: MTCC 1457, 24 h, read-out: DIZ
[21] = Antioxidant activity against ferric chloride-induced lipid peroxidation using egg lecithin at 50 ug/ml after 1 hr; type: functional
[22] = Antioxidant activity assessed as reducing power of ferric ion at 50 ug/ml after 20 mins; type: functional; set-up: scale not given: the % may be the effect or the level left
Klebsiella pneumoniae [23] = experiment: Antimicrobial activity against Klebsiella pneumoniae MTCC 3384; type: functional
Aspergillus niger [24] = experiment: Antimicrobial activity against Aspergillus niger MTCC 281 at 50 ug/ml after 24 hrs by agar disc diffusion method; type: functional; details: MTCC 281, 24 h, read-out: DIZ
Bacillus cereus [25] = experiment: Antimicrobial activity against Bacillus cereus MTCC 8372 at 50 ug/ml after 24 hrs by agar disc diffusion method; type: functional; details: MTCC 8372, 24 h, read-out: DIZ
Bacillus cereus [26] = experiment: Antimicrobial activity against Bacillus cereus MTCC 8372; type: functional
Staphylococcus aureus [27] = experiment: Antimicrobial activity against Staphylococcus aureus MTCC 96; type: functional
Bacillus cereus [28] = experiment: Antimicrobial activity against Bacillus cereus MTCC 8372 at 100 ug/ml after 24 hrs by agar disc diffusion method; type: functional; details: MTCC 8372, 24 h, read-out: DIZ
[29] = Ratio of vitamin-E to compound for ferric chloride-induced lipid peroxidation; type: physicochemical
Escherichia coli [30] = experiment: Antimicrobial activity against Escherichia coli MTCC 724 at 50 ug/ml after 24 hrs by agar disc diffusion method; type: functional; details: MTCC 724, 24 h, read-out: DIZ
Aspergillus niger [31] = experiment: Antimicrobial activity against Aspergillus niger MTCC 281 at 100 ug/ml after 24 hrs by agar disc diffusion method; type: functional; details: MTCC 281, 24 h, read-out: DIZ
Staphylococcus aureus [32] = experiment: Antimicrobial activity against Staphylococcus aureus MTCC 96 at 100 ug/ml after 24 hrs by agar disc diffusion method; type: functional; details: MTCC 96, 24 h, read-out: DIZ

N/C(=N\O)C1CC(c2ccc(O)cc2)=NN1c1ccccc1 (configuration not stated)
zone of inhibition at 50 µg/mL (Shigella flexneri [1]): 12 mm | Activity [2]: 24% | MIC (Shigella flexneri [3]): 10 mg/L (≈ 33.7 µM) | inhibition [4]: 63.5% | Activity [5]: 79% | MIC (Aspergillus flavus [6]): 35 mg/L (≈ 118 µM) | zone of inhibition at 50 µg/mL (Klebsiella pneumoniae [7]): 8 mm | MIC (Aspergillus niger [8]): 15 mg/L (≈ 50.6 µM) | Activity [9]: 41% | inhibition [10]: 12% | zone of inhibition at 100 µg/mL (Escherichia coli [11]): 16 mm | zone of inhibition at 50 µg/mL (Aspergillus flavus [12]): 5 mm | Activity [13]: 76% | MIC (Escherichia coli [14]): 15 mg/L (≈ 50.6 µM) | Activity [15]: 12% | zone of inhibition at 50 µg/mL (Staphylococcus aureus [16]): 2 mm | inhibition [17]: 20% | zone of inhibition at 100 µg/mL (Klebsiella pneumoniae [18]): 12 mm | zone of inhibition at 100 µg/mL (Aspergillus flavus [19]): 12 mm | zone of inhibition at 100 µg/mL (Shigella flexneri [20]): 20 mm | inhibition [21]: 18% | Activity [22]: 34% | MIC (Klebsiella pneumoniae [23]): 20 mg/L (≈ 67.5 µM) | zone of inhibition at 50 µg/mL (Aspergillus niger [24]): 10 mm | zone of inhibition at 50 µg/mL (Bacillus cereus [25]): 3 mm | MIC (Bacillus cereus [26]): 40 mg/L (≈ 135 µM) | MIC (Staphylococcus aureus [27]): 50 mg/L (≈ 169 µM) | zone of inhibition at 100 µg/mL (Bacillus cereus [28]): 3 mm | Ratio [29]: 3 | zone of inhibition at 50 µg/mL (Escherichia coli [30]): 10 mm | zone of inhibition at 100 µg/mL (Aspergillus niger [31]): 14 mm | zone of inhibition at 100 µg/mL (Staphylococcus aureus [32]): 8 mm
